Test results published in patent US20170274006A1, “NASAL COMPOSITION COMPRISING MIXTURE OF HYALURONIC ACIDS AND SALINE SOLUTION” (SOFIBEL, priority 2014, published 2017).

Test system: HRV-A16
Assay: Anti-viral effect: inhibition of HRV-A16 replication on human airway epithelial cell culture
Type: cell-based, rhinovirus
Details: applied one hour before infection; change in viral RNA
Method: The example 1 composition is tested according to the test of evaluation of the potential activity against HRV-A16 (a rhinovirus responsible for colds) on fully differentiated human airway epithelial cells culture. The compositions are first applied before infection for one hour and the replication is carried out for 4 hours. 3 rinsing steps with the formulations are carried out. The remaining is collected and the RNA is dosed after cell lysis. The same collecting step is carried out 24 hours after and the same dosing step is carried out. The percentage expressed the changes in viral RNA, resulting in the % of inhibition of HRV-A16 replication, leading to the anti-viral efficacy. The tested composition is tested against rupintrivir (a known antiviral compound, providing an almost complete response).

CCOC(=O)/C=C/[C@H](C[C@@H]1CCNC1=O)NC(=O)[C@@H](CC(=O)[C@@H](NC(=O)c1cc(C)on1)C(C)C)Cc1ccc(F)cc1 [Rupintrivir]
Inhibition (%) of HRV-A16 replication: 99.62%
